Results on three compounds are retold here after patent publication US9050376B2 (priority 2007, dated 2015).

Entries after “also recorded” stand apart in the source; their conditions may differ.

Test [1] relates to B. anthracis. Details: species or system A/J mice. The following applies: mouse, in vivo.
Test [2] has as its system bone-marrow-derived macrophages (BMDM). It is filed as cell-based, mouse. The conditions noted are these: 24 hours incubation.
Test [3] concerns the target T1, TLR7 (Homo sapiens, UniProt Q9NYK1).
T1 construct: expressed in transfected cells
T1 sequence (Q9NYK1 27-1049): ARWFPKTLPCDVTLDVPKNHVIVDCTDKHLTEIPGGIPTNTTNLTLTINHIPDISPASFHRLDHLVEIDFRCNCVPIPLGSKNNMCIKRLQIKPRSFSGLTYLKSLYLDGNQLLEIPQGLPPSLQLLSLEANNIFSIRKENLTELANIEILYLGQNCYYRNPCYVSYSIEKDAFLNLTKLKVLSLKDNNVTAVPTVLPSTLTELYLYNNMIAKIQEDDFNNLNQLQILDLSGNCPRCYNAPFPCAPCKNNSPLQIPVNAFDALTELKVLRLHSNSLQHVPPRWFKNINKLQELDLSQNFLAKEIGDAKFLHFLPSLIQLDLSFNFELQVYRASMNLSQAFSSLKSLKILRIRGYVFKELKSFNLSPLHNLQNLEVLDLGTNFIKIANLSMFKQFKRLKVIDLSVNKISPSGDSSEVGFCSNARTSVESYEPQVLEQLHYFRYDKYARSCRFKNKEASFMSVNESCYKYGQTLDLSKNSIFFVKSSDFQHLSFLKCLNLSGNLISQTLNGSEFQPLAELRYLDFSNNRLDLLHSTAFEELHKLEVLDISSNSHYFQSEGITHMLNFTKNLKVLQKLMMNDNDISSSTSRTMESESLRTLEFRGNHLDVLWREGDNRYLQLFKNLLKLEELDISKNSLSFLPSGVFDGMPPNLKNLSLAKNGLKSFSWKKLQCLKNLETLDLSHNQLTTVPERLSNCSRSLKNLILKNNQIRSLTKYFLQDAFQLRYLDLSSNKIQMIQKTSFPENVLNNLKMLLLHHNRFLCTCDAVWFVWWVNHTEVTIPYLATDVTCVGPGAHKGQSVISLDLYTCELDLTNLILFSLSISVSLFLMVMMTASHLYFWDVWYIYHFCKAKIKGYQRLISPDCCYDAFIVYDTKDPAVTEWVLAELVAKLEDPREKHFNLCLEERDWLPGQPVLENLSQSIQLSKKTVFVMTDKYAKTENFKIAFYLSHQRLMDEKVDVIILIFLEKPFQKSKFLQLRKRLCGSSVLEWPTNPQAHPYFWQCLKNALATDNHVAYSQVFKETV
Kind of test: TLR transformants, TLR7 agonist specificity and potency. It is filed as cell-based.

Details of test [4]: species or system C57BL/6 mice. The conditions noted are these: mouse, in vivo.
On the set-up of test [5]: species or system C57BL/6 mice. The following applies: mouse, in vivo, iv.
Test [6] relates to anthrax infection. The conditions noted are these: in vivo.
Test [7] has as its system B16 melanoma tumor cells expressing the cOVA transgene. Also noted: species or system C57/B1 mice. The conditions noted are these: mouse, in vivo.

Regarding `COCCOc1nc(N)c2nc(O)n(Cc3ccc(C=O)cc3)c2n1` [UC-1V150, 4-[6-amino-8-hydroxy-2-(2-methoxyethoxy)purin-9-ylmethyl]benzaldehyde], the “effect on survival / protection” value in test [1] was “no significant difference; also recorded: failed to protect”. Moreover, the “cytokine release / activation of BMDM” value in test [2] is “stimulated cytokine release; also recorded: active at nanomolar concentrations”. For the same compound, in test [3], the TLR specificity entry is “specific TLR7 agonist”. Further, the “cytokine production in the BALF” value in test [4] was “induced selective cytokine production”. In addition, the “time of peak serum cytokine levels” value in test [5] is listed as “about 2 hours”.

For `O=C(O)c1cn(C2CC2)c2cc(N3CCNCC3)c(F)cc2c1=O` [ciprofloxacin], the survival in test [6] is 15-25%.

In test [7], “chicken ovalbumin: antigen alone, comparator” came in with a median survival of 22 days.
